Results taken from patent publication US20120095025A1, “SUBSTITUTED [1,2,4]TRIAZOLO[1,5-a]PYRIMIDINES AND THEIR USE AS POTASSIUM CHANNEL MODULATORS” (NEUROSEARCH A/S, priority 2009, published 2012).

Each molecule was assayed against T1, hSK1 channels (Homo sapiens, UniProt Q92952) (assay: Whole-cell patch-clamp recording of SK channel current in HEK293 cells expressing hSK1). Details: concentration required for decreasing the baseline current to 50% of the initial current.
T1 construct: expressed in transfected cells; host or cells: HEK293
Format: cell-based
Description: The ionic current through small-conductance Ca^2+-activated K^+ channels (SK channels, subtype 1) is recorded using the whole-cell configuration of the patch-clamp technique in a classic patch-clamp set-up using HEK293 tissue culture cells expressing hSK1 channels as described in e.g. WO 2006/100212.
For inhibitors a Kd value, defined as the concentration required for decreasing the baseline current to 50% of the initial current, was estimated.

Kd | SMILES
100 to 1000 nM | CC(Oc1ccc(C(C)(C)C)cc1)c1ccnc2nc(NC=NO)nn12 (centres unmarked) [Example 1, N-{7-[1-(4-tert-Butylphenoxy)ethyl]-[1,2,4]triazolo[1,5-a]pyrimidin-2-yl}-N′-hydroxy-formamidine]
< 100 nM | CCCON=CNc1nc2nccc(C(C)Oc3ccc(C(C)(C)C)cc3)n2n1 (centres unmarked) [Example 2, N-{7-[1-(4-tert-Butylphenoxy)ethyl]-[1,2,4]triazolo[1,5-a]pyrimidin-2-yl}-N′-propyloxy-formamidine]
> 3000 nM | CC(C)ON=CNc1nc2nccc(C(C)Oc3ccc(C(C)(C)C)cc3)n2n1 (centres unmarked) [Example 3, N-{7-[1-(4-tert-Butylphenoxy)ethyl]-[1,2,4]triazolo[1,5-a]pyrimidin-2-yl}-N′-isopropyloxy-formamidine]
> 3000 nM | CON=CNc1nc2nccc(COc3ccc(C(C)(C)C)cc3)n2n1 [Example 4, N-[7-(4-tert-Butylphenoxymethyl)-[1,2,4]triazolo[1,5-a]pyrimidin-2-yl]-N′-methoxy-formamidine]
> 3000 nM | CON=CNc1nc2nccc(C(C)Oc3ccc(C4CCCC4)cc3)n2n1 (centres unmarked) [Example 5, N-{7-[1-(4-cyclopentyl-phenoxy)ethyl]-[1,2,4]triazolo[1,5-a]pyrimidin-2-yl}-N′-methoxy-formamidine]
> 3000 nM | CON=CNc1nc2nccc(C(C)Oc3ccc(C(C)C)cc3)n2n1 (centres unmarked) [Example 6, N-{7-[1-(4-Isopropylphenoxy)ethyl]-[1,2,4]triazolo[1,5-a]pyrimidin-2-yl}-N′-methoxy-formamidine]
100 to 1000 nM | CON=CNc1nc2nccc(C(C)(C)Oc3ccc(C(C)(C)C)cc3)n2n1 [Example 10, N-{7-[1-(4-tert-Butylphenoxy)-1-methyl-ethyl]-[1,2,4]triazolo[1,5-a]pyrimidin-2-yl}-N′-methoxy-formamidine]
< 100 nM | CON=CNc1nc2nccc(C(C)Oc3ccc(C(C)(C)C)cc3)n2n1 (centres unmarked) [Example A, N-{7-[1-(4-tert-Butylphenoxy)ethyl]-[1,2,4]triazolo[1,5-a]pyrimidin-2-yl}-N′-methoxy-formamidine]

SMILES | Kd
CON=CNc1nc2nccc(C(C)Oc3ccc(C(C)(C)C)cc3C)n2n1 (centres unmarked) [Example 7, N-{7-[1-(4-tert-Butyl-2-methylphenoxy)ethyl]-[1,2,4]triazolo[1,5-a]pyrimidin-2-yl}-N′-methoxy-formamidine] | < 100 nM
CCC(Oc1ccc(C(C)(C)C)cc1)c1ccnc2nc(NC=NOC)nn12 (centres unmarked) [Example 8, N-{7-[1-(4-tert-Butylphenoxy)propyl]-[1,2,4]triazolo[1,5-a]pyrimidin-2-yl}-N′-methoxy-formamidine] | < 100 nM
CON=CNc1nc2nccc(C(C)Oc3ccc(OC(C)(C)C)cc3)n2n1 (centres unmarked) [Example 9, N-{7-[1-(4-tert-Butoxy-phenoxy)ethyl]-[1,2,4]triazolo[1,5-a]pyrimidin-2-yl}-N′-methoxy-formamidine] | < 100 nM
